In patent publication US11229635B2, “Method of treating fibrosis” (BCN Biosciences L.L.C., priority 2016, dated 2022):

Experiments:
[1] = Pharmacokinetic profile after sc injection; type: in vivo; conditions: mouse, plasma; C57BL/6 male mice, 10 mg/kg sc, low % deoxycholate formulation
Method: FIG. 6A: Pharmacokinetic profile for C57BL/6 male mice receiving a 10 mg/kg sc injection of 512 in a low % deoxycholate formulation.
Because the side effects of Cremophor are undesirable for an MCM candidate, alternative formulations are being tested for further development of 512 for the lung DEARE indication.

Lewis lung (LLC) tumors = assay: Lewis lung (LLC) artificial metastasis model, lung tumor colonies; type: in vivo, C57Bl/6 and C3H mice
Method: One of the major concerns of the Food and Drug Administration for the application of radiation mitigators in RT is that if an agent can protect normal tissue from radiation damage, it may also protect tumor tissues. […] The syngeneic model of artificial metastasis used Lewis lung (LLC) tumors, and since LLC also grow in C3H mice, this could be employed as an allogeneic model. C57B1/6 and C3H mice were injected i.v. with 5×10^4 tumor cells. Subcutaneous drug injections were started on day +3 when the tumors were established in the lung in order to bias the experiment in favor of tumor growth promotion. The dose regimen was arbitrarily assigned to a dose of 20 mg/kg for 5 days. LTI was started on day 4, with 4 Gy doses administered daily for 3 days. This is higher than conventional 2 Gy to compensate for the more rapid growth of murine tumors, but is still well within the range used clinically in hypofractionated therapy.

[2] = tested on: human A549 adenocarcinoma cells; assay: A549 xenograft lung colony model in nude mice; type: in vivo; conditions: 20 mg/kg sc once daily for 5 days, with or without 4 Gy LTI x 3, day 72
Method: LTI alone decreased the number of co […] lonies by 40%. Extensive analysis of the drug doses that would be optimal for exerting effects on tumors in the radiation setting are still needed, but there is no evidence for enhanced tumor growth as a result of radiation treatment with drug, and in fact exactly the opposite. […] Thirty-two nude mice were injected intravenously with 5×10^4 human A549 adenocarcinoma cells on day 1. The drug was administered starting at day 3; 20 mg/kg BCN512 was injected subcutaneously once daily for 5 days. Fractionated radiation was started on day 4, with 4 Gy LTI administered daily for 3 days. Tumors developed very slowly, so the mice were sacrificed on day 72 and the number of nodules in the lungs were counted. There was considerable variation in the irradiated group, with a tendency for lung irradiation to increase the number of tumor colonies. This is not a unique observation that may be ascribed to radiation-induced myeloid cell mobilization.

[3] = tested on: bone marrow hematopoietic stem cells (HSCs); assay: Total body irradiation survival (hematopoietic suppression); type: in vivo, C3H/HeN mice
Method: FIG. 8A-C: (A) Kaplan Meier Plot of Male C3H/HeN mice 7.75Gy 30 Day TBI (n=30) 50 mg/kg BCN057. (B). Kaplan Meier Plot of Female C3H/HeN mice 7.75Gy 30 Day TBI (n=10) 25 mg/kg BCN057. (C) Cytokine Profile in Plasma Male C3H/HeN mice 7.75Gy TBI Day 8 receiving BCN057.
7.75 Gy radiation is used to ablate bone marrow hematopoietic stem cells (HSCs) in these strains of mice. […] Lethality from bone marrow suppression occurs in the 14-25 day region due to the life cycle of approximately 2 weeks for RBC and inability to replace them without HSCs
7.73 Gy radiation is used to ablate bone marrow HSCs in the C3H strain of mice.

[4] = tested on: canonical Wnt-β catenin signaling; assay: TCF/LEF luciferase reporter assay in HEK293 cells; type: cell-based; conditions: 28 μM, 24 h, vs vehicle treated cells
Method: LiCl (10 mM) treatment was used as positive control for luciferase activity. Luciferase activity was determined after 24 h using a Dual-Luciferase® Reporter Assay System (Promega) as per manufacturer's protocol. HEK293 cells containing a FOPFlash construct were used as a negative control.

lung organoids = assay: Ex vivo 3D lung organoid culture after radiation; type: cell-based, mice; conditions: 6 Gy; 28 μM at 1-hour post-radiation exposure
Method: 512 induces lung organoid growth in ex vivo cultures: Ex vivo 3D organoid cultures are one of the best models for studying stem cell growth and proliferation because organoid growth depends primarily on the presence of stem cells. For these experiments, mice were euthanized by CO2 or ketamine-xylazine administration and the abdominal aorta was exposed and exsanguinated. The thoracic cavity was opened, and the lungs were exposed. Blood was flushed from the lung vasculature by perfusion with 10 mL of sterile cold PBS through the right ventricle. The trachea was cannulated with a 24-G cannula, and 1.2 mL of 10 U dispase (BD) was then injected into the lungs. The trachea and lungs were removed from the chest en-block and incubated for 20 minutes at room temperature (RT). The lung lobes were dissected from the trachea, heart, and rest of mediastinal structures and then finely minced and incubated for 10 more min with 2 mL of dispase. The suspension was passed through an 18-G needle 4-5 times to help open the lung compartments. If sticky DNA was detected, 10-30 μL of 4 mg/mL DNase I (Sigma) was added to the cell suspension and incubated at 37° C. for 5 min. The cells were filtered through a 100-μ cell strainer (BD Biosciences) to obtain single-cell suspensions (SCS). Red blood cells were lysed using RBC lysing buffer. […]

[5] = tested on: macrophages co-cultured with fibroblasts; assay: Macrophage-fibroblast co-culture, CFSE proliferation; type: cell-based, mouse
From the text: Cell proliferation was used as a sensitive in vitro endpoint because it can also be used to detect cell death. Cells were labeled with the fluorescent dye CF SE, which becomes diluted as the cells proliferate over time. We performed a series of experiments using tumor cell lines to validate the assay and determine the effective ratios of macrophages to target cells (not shown) before performing experiments with normal early-pass murine embryo fibroblasts. To study the effects of BCN-512 and macrophages on fibroblast cell proliferation and death, irradiated (2 or 6 Gy) macrophages and fibroblasts were added at various ratios. Normal mouse fibroblasts were labelled with CF SE and added to the macrophages in 96-well plates. BCN-512 (10 μM) and/or LPS (1 μg/mL) or diluent were then added, and the plates cultured for 1, 2, or 3 days. The purpose of the LPS was to activate the macrophages. BCN-512 was added 1 hour after LPS, which was added immediately after irradiation

## O=[N+]([O-])c1ccc(S(=O)(=O)N2CCN(c3ccccc3)CC2)cc1 [BCN512, 1-[(4-nitrobenezene)sulfonyl]-4-phenyl piperazine]
[1]
  Cmax: 132 ng/mL
  Tmax: 2 h
Lewis lung (LLC) tumors; both strains, vs control
  lung tumor colony size: smaller in size than control
Lewis lung (LLC) tumors; day 14, 20 mg/kg sc for 5 days, both C3H and C57 mouse strains, P<0.05
  decrease of the number of lung tumor colonies: 20%
[2]
  number of tumor colonies (lung nodules): did not increase the number of tumor colonies
[3]; 7.73 Gy TBI, C3H strain of mice
  lethality from bone marrow suppression: sufficient to prevent lethality from bone marrow suppression
[3]; Deoxycholate formulation, subcutaneously
  efficacy in total body irradiation experiments: good efficacy
[4]
  luciferase activity: significantly increased luciferase activity
Lung organoids
  lung organoid growth: mitigated the radiation damage and induced lung organoid growth
[5]; 10 μM, LPS 1 μg/mL, ratios of 20:1 or 25:1
  toxicity of LPS-treated macrophages to fibroblasts: practically abolished the toxicity associated with LPS treatment
[5]; 6 Gy macrophage irradiation, 3 days
  increase of viable fibroblasts by irradiated macrophages: seemed to neutralize this function
